# Where two headings read alike, the source gives them in different places.
# Columns and labels:
# [1] = tested on: MCF-7 breast cancer cells; assay: MTT cell viability assay; type: cell-based, human; conditions: read-out: IC50 cell viability (MTT)
# [2] = target: tumor CT-L activity of the proteasome (Homo sapiens, UniProt P20618+P28074); assay: Proteasome activity in A549 tumor lysates after in vivo treatment, CT-L; set-up: species or system nude mice; conditions: A549 tumors, 1 mpk i.p., 2 h after last injection
# [3] = tested on: MCF-7/MCF-10A, T80-Hras/T80, C7-Kras/C7 cells; assay: Cell death by Trypan Blue exclusion in 3 pairs of cell lines; type: cell-based, human; conditions: 24 h, Fig. 4
# [4] = tested on: LNCaP prostate cancer cells; assay: MTT cell viability assay; type: cell-based, human
# [5] = tested on: MCF-7/MCF-10A, T80-Hras/T80, C7-Kras/C7 cells; assay: TUNEL apoptosis assay in 3 pairs of cell lines; type: cell-based, human; conditions: 24 h
# [6] = target: tumor PGPH activity of the proteasome (Homo sapiens, UniProt P28072); assay: Proteasome activity in A549 tumor lysates after in vivo treatment, PGPH; set-up: species or system nude mice; conditions: A549 tumors, 1 mpk i.p., 2 h after last injection
# [7] = tested on: p27^Kip1 levels in A549 lung cancer cells; assay: Western blot of p27Kip1 in cultured A549 cells; type: cell-based, human; conditions: 48 h
smiles,measurement,setting,value
O=C1C(Cl)=C(Nc2ccc(S(=O)(=O)Nc3ccccn3)cc2)C(=O)c2ccccc21 [PI-083],IC50,"[1]; MCF-7, 24 h",4.5 ± 0.82 µM
same,IC50,"[1]; MCF-7, 72 h",2.2 ± 1.1 µM
same,inhibition of tumor CT-L activity vs vehicle-treated controls,[2],43%
same,"cell death, cancer vs non-transformed cells",[3],much more effective in increasing cell death in all 3 cancer cell lines over their non-transformed counterparts
same,IC50,"[4]; read-out: IC50 cell viability (MTT), 24 h",14 ± 2.8 µM
same,IC50,"[4]; read-out: IC50 cell viability (MTT), 72 h",5.2 ± 1.1 µM
same,apoptosis (TUNEL),[5]; T80 cells,induced very little apoptosis
same,apoptosis (TUNEL),"[5]; cancer cell lines MCF-7, T80-Hras and C7-Kras",induced apoptosis in all 3 cancer cell lines
same,apoptosis (TUNEL),[5]; non-transformed MCF-10A and C7,did not induce apoptosis
same,inhibition of tumor PGPH activity vs vehicle-treated controls,[6],34%
same,p27^Kip1 levels,[7],marked increase
